Data as given in PMC11606603, “The membrane domains of mammalian adenylyl cyclases are lipid receptors” (eLife, 2024).
“And” between values parts separate entries of the source, which are not always exact repeats. Equal values may be shown once.

What was measured:
[1] = tested on: mAC activity in brain cortical membranes; experiment: AC assay, Gsα-stimulated brain cortical membranes; format: biochemical, mouse
Procedure: hAC sequences were from NCBI were: ADCY1: NM_021116.3; ADCY2: NM_020546.2; ADCY3: NM_004036.4; ADCY4: NM_001198568.2; ADCY5: NM_183357.2; ADCY6: NM_015270.4; ADCY7: NM_001114.4; ADCY8: NM_001115.2; ADCY9: NM_001116.3. Human mAC genes were from GenScript and fitted with a C-terminal FLAG-tag. […] The gene was synthesized by GenScript. HEK293 cells were maintained in Dulbeccos Modified Eagle Medium (DMEM) with 10% fetal bovine serum at 37°C and 5% CO2. Transfection with AC plasmids was with PolyJet (SignaGen, Frederick, MD, USA). Permanent cell lines were generated by selection for 7 days with 600 µg/ml G418 and maintained with 300 µg/ml For membrane preparation, cells were tyrpsinized, collected by centrifugation (3000 × g, 5 min) and lysed and homogenized in 20 mM HEPES, pH 7.5, 1 mM Ethylenediaminetetraacetic acid (EDTA), 2 mM MgCl2, 1 mM Dithiothreitol (DTT), one tablet of cOmplete, EDTA-free (per 50 ml) and 250 mM sucrose by 20 strokes in a potter homogenizer on ice. Debris was removed (5 min at 1000 × g, 0°C), membranes were collected at 100,000 × g, 60 min at 0°C, suspended and stored at −80°C in 20 mM MOPS, pH 7.5, 0.5 mM EDTA, 2 mM MgCl2. […] Three cerebral cortices were dissected and homogenized in 4.5 ml cold 48 mM Tris–HCl, pH 7.4, 12 mM MgC1_2, and 0.1 mM Ethylene glycol-bis(β-aminoethyl ether)-N,N,N′,N′-tetraacetic acid (EGTA) with a Polytron hand disperser (Kinematica AG, Switzerland). […] The pellet was washed once with 5 ml 1 mM KHCO3. The final suspension in 2 ml 1 mM KHCO3 was stored in aliquots at −80°C.
In a volume of 10 μl, AC activities were measured using 1 mM ATP, 2 mM MgCl2, 3 mM creatine phosphate, 60 μg/ml creatine kinase, and 50 mM MOPS pH 7.5. The cAMP assay kit from Cisbio (Codolet, France) was used for detection according to the supplier’s instructions. For each assay, a cAMP standard curve was established. EC50 and IC50 values were calculated by GraphPad Prism version 8.4.3 for Windows, GraphPad Software, San Diego, CA, USA, https://www.graphpad.com .

mAC7 = target: T1, mAC7 (Homo sapiens, UniProt P51828); experiment: AC assay, Gsα-stimulated mAC7 in membranes from transfected HEK293 cells; format: biochemical
T1 construct: Human mAC genes were from GenScript and fitted with a C-terminal FLAG-tag; FLAG (C); made in house; host or cells: HEK293, permanently transfected; membrane preparation
T1 sequence (P51828 whole entry): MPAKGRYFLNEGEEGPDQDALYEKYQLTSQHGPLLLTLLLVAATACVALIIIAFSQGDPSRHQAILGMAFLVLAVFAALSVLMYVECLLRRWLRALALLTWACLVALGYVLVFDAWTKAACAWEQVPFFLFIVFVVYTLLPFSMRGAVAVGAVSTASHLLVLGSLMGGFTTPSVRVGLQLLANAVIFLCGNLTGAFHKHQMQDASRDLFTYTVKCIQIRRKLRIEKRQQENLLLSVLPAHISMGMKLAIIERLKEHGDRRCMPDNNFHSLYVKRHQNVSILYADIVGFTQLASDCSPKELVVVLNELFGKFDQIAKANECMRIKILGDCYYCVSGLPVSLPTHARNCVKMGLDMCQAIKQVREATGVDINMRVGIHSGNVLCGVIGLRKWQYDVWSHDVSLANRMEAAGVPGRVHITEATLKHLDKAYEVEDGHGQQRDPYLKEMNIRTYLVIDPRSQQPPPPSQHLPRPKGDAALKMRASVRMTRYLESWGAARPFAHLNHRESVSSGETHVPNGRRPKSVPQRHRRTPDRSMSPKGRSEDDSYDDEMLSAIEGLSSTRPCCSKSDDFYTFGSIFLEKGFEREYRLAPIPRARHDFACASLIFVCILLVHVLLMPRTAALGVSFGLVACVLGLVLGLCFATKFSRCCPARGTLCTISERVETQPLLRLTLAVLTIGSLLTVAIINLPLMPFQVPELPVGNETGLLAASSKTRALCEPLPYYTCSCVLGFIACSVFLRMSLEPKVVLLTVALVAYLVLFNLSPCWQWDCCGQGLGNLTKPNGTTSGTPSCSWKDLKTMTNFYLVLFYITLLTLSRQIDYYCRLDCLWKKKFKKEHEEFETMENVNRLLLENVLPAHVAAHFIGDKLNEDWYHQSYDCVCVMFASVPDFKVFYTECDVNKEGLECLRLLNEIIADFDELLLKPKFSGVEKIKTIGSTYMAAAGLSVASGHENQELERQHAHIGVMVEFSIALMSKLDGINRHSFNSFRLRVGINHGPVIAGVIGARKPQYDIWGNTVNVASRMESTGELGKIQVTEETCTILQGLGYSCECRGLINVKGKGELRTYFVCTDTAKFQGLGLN
T1 sequence (P63092 2-394 Q227L partner): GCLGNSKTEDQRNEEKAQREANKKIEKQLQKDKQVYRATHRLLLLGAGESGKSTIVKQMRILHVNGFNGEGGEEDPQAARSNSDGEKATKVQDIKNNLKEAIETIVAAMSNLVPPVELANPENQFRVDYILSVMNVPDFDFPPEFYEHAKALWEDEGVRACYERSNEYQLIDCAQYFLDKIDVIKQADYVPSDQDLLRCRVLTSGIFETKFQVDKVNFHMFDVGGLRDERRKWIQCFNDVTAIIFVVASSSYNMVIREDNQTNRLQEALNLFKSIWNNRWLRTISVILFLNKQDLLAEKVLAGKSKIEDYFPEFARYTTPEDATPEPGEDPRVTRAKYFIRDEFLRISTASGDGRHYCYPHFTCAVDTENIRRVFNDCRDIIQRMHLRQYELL
Method in brief: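 cAMP formation was quantified by HTRF against a cAMP standard curve, with EC50 or IC50 derived by curve fitting. Reactions contained 1 mM ATP, 2 mM MgCl2, 3 mM creatine phosphate, 60 μg/ml creatine kinase and 50 mM MOPS pH 7.5, using membranes of stably transfected HEK293 cells carrying FLAG-tagged human AC.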

HEK-mAC1 = target: T2, HEK-mAC1 (Homo sapiens, UniProt Q08828); experiment: cAMP accumulation assay, isoproterenol-stimulated HEK-mAC1 cells; format: cell-based; conditions: for cAMP level (%); 100%= 10µM Isoproterenol stimulation: single experiments
T2 construct: Human mAC genes were from GenScript and fitted with a C-terminal FLAG-tag; FLAG (C); expressed in transfected cells; host or cells: HEK293, permanently transfected
T2 sequence (Q08828 whole entry): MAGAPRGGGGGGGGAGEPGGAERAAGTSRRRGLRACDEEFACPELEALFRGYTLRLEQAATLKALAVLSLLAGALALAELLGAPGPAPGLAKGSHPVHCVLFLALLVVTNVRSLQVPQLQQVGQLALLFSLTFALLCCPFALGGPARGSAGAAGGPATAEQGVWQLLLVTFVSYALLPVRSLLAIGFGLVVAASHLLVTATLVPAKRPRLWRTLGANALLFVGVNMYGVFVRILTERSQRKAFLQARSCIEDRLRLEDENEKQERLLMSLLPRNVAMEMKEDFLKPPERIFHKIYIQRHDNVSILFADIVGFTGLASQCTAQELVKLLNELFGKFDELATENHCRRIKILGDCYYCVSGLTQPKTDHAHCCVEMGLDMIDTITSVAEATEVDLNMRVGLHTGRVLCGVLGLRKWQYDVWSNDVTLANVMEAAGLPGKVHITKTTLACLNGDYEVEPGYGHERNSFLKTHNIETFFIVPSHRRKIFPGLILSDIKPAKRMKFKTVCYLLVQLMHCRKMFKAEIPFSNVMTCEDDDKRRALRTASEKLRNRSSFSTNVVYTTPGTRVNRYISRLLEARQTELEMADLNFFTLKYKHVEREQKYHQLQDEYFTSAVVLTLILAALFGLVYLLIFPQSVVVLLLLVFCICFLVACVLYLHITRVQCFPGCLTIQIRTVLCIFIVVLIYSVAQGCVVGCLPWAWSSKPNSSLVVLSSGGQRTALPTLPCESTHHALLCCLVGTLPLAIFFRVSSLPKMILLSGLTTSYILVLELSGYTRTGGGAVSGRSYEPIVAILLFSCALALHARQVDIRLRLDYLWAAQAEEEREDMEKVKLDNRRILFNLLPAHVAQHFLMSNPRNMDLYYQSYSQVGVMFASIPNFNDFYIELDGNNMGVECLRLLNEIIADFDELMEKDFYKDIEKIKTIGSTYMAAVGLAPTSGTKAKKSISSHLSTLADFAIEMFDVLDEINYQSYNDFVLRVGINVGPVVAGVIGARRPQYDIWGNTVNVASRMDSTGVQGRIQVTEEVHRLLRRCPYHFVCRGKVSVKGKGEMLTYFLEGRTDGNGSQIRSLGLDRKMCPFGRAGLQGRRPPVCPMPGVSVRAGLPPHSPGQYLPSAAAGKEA

HEK-mAC4 = target: T3, HEK-mAC4 (Homo sapiens, UniProt Q8NFM4); experiment: cAMP accumulation assay, isoproterenol-stimulated HEK-mAC4 cells; format: cell-based; conditions: for cAMP level (%); 100%= 10µM Isoproterenol stimulation: single experiments
T3 construct: Human mAC genes were from GenScript and fitted with a C-terminal FLAG-tag; FLAG (C); expressed in transfected cells; host or cells: HEK293, permanently transfected
T3 sequence (Q8NFM4 1-1077): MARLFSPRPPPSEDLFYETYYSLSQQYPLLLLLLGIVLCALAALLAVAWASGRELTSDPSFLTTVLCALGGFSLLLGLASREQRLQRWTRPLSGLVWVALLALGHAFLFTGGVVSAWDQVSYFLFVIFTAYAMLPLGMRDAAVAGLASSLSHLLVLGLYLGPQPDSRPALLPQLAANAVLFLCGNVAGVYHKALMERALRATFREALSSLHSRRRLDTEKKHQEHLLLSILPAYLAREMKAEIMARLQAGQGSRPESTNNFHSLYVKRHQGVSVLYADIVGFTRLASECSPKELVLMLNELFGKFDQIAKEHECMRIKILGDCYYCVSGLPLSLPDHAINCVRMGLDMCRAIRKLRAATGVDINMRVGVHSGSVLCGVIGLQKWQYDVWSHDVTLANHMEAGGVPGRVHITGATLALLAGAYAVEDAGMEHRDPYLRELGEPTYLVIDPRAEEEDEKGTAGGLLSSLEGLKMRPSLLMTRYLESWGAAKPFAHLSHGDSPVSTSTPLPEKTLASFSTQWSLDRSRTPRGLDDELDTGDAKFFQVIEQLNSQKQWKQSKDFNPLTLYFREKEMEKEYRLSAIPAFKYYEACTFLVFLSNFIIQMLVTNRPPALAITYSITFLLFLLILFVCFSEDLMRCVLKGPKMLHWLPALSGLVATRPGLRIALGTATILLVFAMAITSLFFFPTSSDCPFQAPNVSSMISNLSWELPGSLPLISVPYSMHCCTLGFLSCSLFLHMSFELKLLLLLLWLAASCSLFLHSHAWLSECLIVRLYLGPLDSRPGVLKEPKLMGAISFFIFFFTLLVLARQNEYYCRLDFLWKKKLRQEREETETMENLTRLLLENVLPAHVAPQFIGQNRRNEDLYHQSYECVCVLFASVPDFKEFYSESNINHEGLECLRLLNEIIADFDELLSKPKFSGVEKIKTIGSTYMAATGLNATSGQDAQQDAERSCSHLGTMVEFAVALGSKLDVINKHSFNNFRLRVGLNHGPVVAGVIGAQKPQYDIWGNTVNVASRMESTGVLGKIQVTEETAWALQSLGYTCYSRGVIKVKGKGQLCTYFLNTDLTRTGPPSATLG

SMILES: CCCCCCCC/C=C\CCCCCCCC(=O)O [Oleic acid, Oleic ((9Z)-octadecenoic) acid]
- enhancement of Gsα-stimulated cAMP formation in cortical membranes ([1]; 20 µM oleic acid): 1.5 fold
- mAC activity [%] (100% = 300nM Gsα stimulation), mouse brain cortex ([1]; Oleic acid 1 µM): 78% and 93% and 114%
- mAC activity [%] (100% = 300nM Gsα stimulation), mouse brain cortex ([1]; Oleic acid 3 µM): 154%
- mAC activity [%] (100% = 300nM Gsα stimulation), mouse brain cortex ([1]; Oleic acid 6 µM): 153% and 144%
- mAC activity [%] (100% = 300nM Gsα stimulation), mouse brain cortex ([1]; Oleic acid 8 µM): 173% and 146% and 174%
- mAC activity [%] (100% = 300nM Gsα stimulation), mouse brain cortex ([1]; Oleic acid 10 µM): 142% and 181%
- mAC activity [%] (100% = 300nM Gsα stimulation), mouse brain cortex ([1]; Oleic acid 20 µM): 187% and 161% and 140%
- EC50 ([1]; enhancement of 300 nM Gsα-stimulated cAMP formation): 5 µM
- Effect of lipid on 300 nM Gsα-stimulated mAC7 (mAC7; 20 µM, in words): significantly enhanced
- mAC7 activity [%] (100% = 300nM Gsα stimulation) (mAC7; Figure 5 B, oleic acid 0.3 µM): 100%
- EC50 (mAC7; enhancement of 300 nM Gsα-stimulated activity): 6.7 µM

SMILES: CCCCC/C=C\C/C=C\C/C=C\C/C=C\CCCC(=O)O [Arachidonic acid, Arachidonic ((5Z,8Z,11Z,14Z)-eicosatetraenoic) acid]
- IC50 (HEK-mAC1; 10 µM isoproterenol, 0.5 mM IBMX): 0.25 nM
- cAMP level (%); 100%= 10µM Isoproterenol stimulation (HEK-mAC1; HEK-mAC1, 1e-5 µM): 113% and 69%
- cAMP level (%); 100%= 10µM Isoproterenol stimulation (HEK-mAC1; HEK-mAC1, 0.0001 µM): 98% and 73%
- cAMP level (%); 100%= 10µM Isoproterenol stimulation (HEK-mAC1; HEK-mAC1, 0.001 µM): 93% and 69%
- cAMP level (%); 100%= 10µM Isoproterenol stimulation (HEK-mAC1; HEK-mAC1, 0.003 µM): 61%
- cAMP level (%); 100%= 10µM Isoproterenol stimulation (HEK-mAC1; HEK-mAC1, 0.006 µM): 59%
- cAMP level (%); 100%= 10µM Isoproterenol stimulation (HEK-mAC1; HEK-mAC1, 0.01 µM): 62% and 55% and 52% and 91% and 64%
- cAMP level (%); 100%= 10µM Isoproterenol stimulation (HEK-mAC1; HEK-mAC1, 0.1 µM): 77% and 55% and 49% and 97% and 63%
- cAMP level (%); 100%= 10µM Isoproterenol stimulation (HEK-mAC1; HEK-mAC1, 0.6 µM): 47%
- cAMP level (%); 100%= 10µM Isoproterenol stimulation (HEK-mAC1; HEK-mAC1, 60 µM): 72% and 67% and 51% and 53% and 65%
- cAMP level (%); 100%= 10µM Isoproterenol stimulation (HEK-mAC1; HEK-mAC1, 100 µM): 76% and 47% and 57% and 42% and 44% and 60% and 81%
- Effect on isoproterenol-stimulated cAMP formation in HEK-mAC4 (HEK-mAC4; 10 µM isoproterenol, in words): not attenuated
- cAMP level (%); 100%= 10µM Isoproterenol stimulation (HEK-mAC4; HEK-mAC4, 1e-5 µM): 136%
- cAMP level (%); 100%= 10µM Isoproterenol stimulation (HEK-mAC4; HEK-mAC4, 0.0001 µM): 111%
- cAMP level (%); 100%= 10µM Isoproterenol stimulation (HEK-mAC4; HEK-mAC4, 0.001 µM): 114%
- cAMP level (%); 100%= 10µM Isoproterenol stimulation (HEK-mAC4; HEK-mAC4, 0.01 µM): 81% and 101% and 120% and 122%
- cAMP level (%); 100%= 10µM Isoproterenol stimulation (HEK-mAC4; HEK-mAC4, 0.03 µM): 124%
- cAMP level (%); 100%= 10µM Isoproterenol stimulation (HEK-mAC4; HEK-mAC4, 0.06 µM): 102%
- cAMP level (%); 100%= 10µM Isoproterenol stimulation (HEK-mAC4; HEK-mAC4, 0.1 µM): 84% and 94% and 116% and 103%
- cAMP level (%); 100%= 10µM Isoproterenol stimulation (HEK-mAC4; HEK-mAC4, 0.6 µM): 108%
- cAMP level (%); 100%= 10µM Isoproterenol stimulation (HEK-mAC4; HEK-mAC4, 1 µM): 106% and 107% and 121% and 127% and 99% and 109% and 161% and 110%
- cAMP level (%); 100%= 10µM Isoproterenol stimulation (HEK-mAC4; HEK-mAC4, 3 µM): 93% and 101% and 129% and 97% and 124% and 139%
- cAMP level (%); 100%= 10µM Isoproterenol stimulation (HEK-mAC4; HEK-mAC4, 10 µM): 112% and 82% and 111% and 109% and 125% and 147%
- cAMP level (%); 100%= 10µM Isoproterenol stimulation (HEK-mAC4; HEK-mAC4, 30 µM): 103% and 112% and 97% and 105% and 131%
- cAMP level (%); 100%= 10µM Isoproterenol stimulation (HEK-mAC4; HEK-mAC4, 60 µM): 95% and 112% and 121% and 114% and 128%
- cAMP level (%); 100%= 10µM Isoproterenol stimulation (HEK-mAC4; HEK-mAC4, 100 µM): 99% and 78% and 112% and 85% and 100% and 146% and 145%
